Tests used:
SF-268 = assay: Cytotoxicity against human SF-268 cells after 24 hrs by MTT assay; assay type: functional, cell-based; conditions: SF-268, 24 h
NCI-H460 = assay: Cytotoxicity against human NCI-H460 cells after 24 hrs by MTT assay; assay type: functional, cell-based; conditions: NCI-H460, 24 h
[1] = Cytotoxicity against human WI38 cells after 24 hrs by MTT assay; assay type: cell-based; conditions: WI-38, 24 h
MIA PaCa-2 = assay: Cytotoxicity against human MIA PaCa2 cells after 24 hrs by MTT assay; assay type: functional, cell-based; conditions: MIA PaCa-2, 24 h
MCF7 = assay: Cytotoxicity against human MCF7 cells after 24 hrs by MTT assay; assay type: functional, cell-based; conditions: MCF7, 24 h

| SMILES | IC50 (SF-268) [µM] | IC50 (NCI-H460) [µM] | IC50 [1] [µM] | IC50 (MIA PaCa-2) [µM] | IC50 (MCF7) [µM] |
| --- | --- | --- | --- | --- | --- |
| C=C1C(=O)O[C@H]2[C@@H](OC(C)=O)[C@@H]1[C@H](OC(=O)C(C)(C)O)[C@H](C(=C)C=O)[C@@]2(C)[C@@H]1CO1 (relative stereo) | 0.64 | 0.97 | 0.76 | 0.44 | 0.52 |
| C=C1C(=O)O[C@H]2[C@@H](OC(C)=O)[C@@H]1[C@H](OC(=O)C(C)(O)CC)[C@H](C(=C)C=O)[C@@]2(C)[C@@H]1CO1 (relative stereo) [ZINAGRANDINOLIDE A] | 0.29 | 0.45 | 0.69 | 0.22 | 0.51 |
| C=C[C@@]1(C)[C@H]2OC(=O)C(=C)[C@H]([C@@H]2OC(C)=O)[C@H](OC(=O)C(C)(O)CC)[C@@H]1C(=C)C=O (relative stereo) [ZINAGRANDINOLIDE B] | 0.3 | 0.25 | 0.43 | 0.21 | 0.38 |
| C=C[C@@]1(C)[C@H]2OC(=O)C(=C)[C@H]([C@@H]2OC(C)=O)[C@H](OC(=O)C(C)(C)O)[C@@H]1C(=C)C=O (relative stereo) [ZINAGRANDINOLIDE C] | 0.44 | 0.27 | 0.64 | 0.32 | 0.55 |
| COc1cccc2c1C(=O)c1c(O)c3c(c(O)c1C2=O)C[C@@](O)(C(=O)CO)C[C@@H]3O[C@H]1C[C@H](N)[C@H](O)[C@H](C)O1 [DOXORUBICIN] | – | 0.01 | 0.3 | – | – |
